The values below come from PubChem BioAssay (NCI).

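Exposure lasted 48 hours, with cells grown in 96-well plates and compounds tested at five concentrations. At the GI50, growth is halved. At the TGI there is no net growth.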

Assay in all cases: DTP human tumour cell line panel, 48 h
Assay [1] deals with A549 NSCLC.
Assay [2] concerns SK-OV-3 ovarian.
For assay [3], the system named is K-562 leukemia.
Assay [4] has as its system NCI-H460 lung.
In assay [5] the test system is BT-549 breast.
The subject of assay [6] is A498 renal.
In assay [7] the test system is SF-295 CNS.
The test system of assay [8] is EKVX NSCLC.
Assay [9] deals with NCI/ADR-RES ovarian.
In assay [10] the test system is HCT-116 colon.

Consider `CNC(=O)c1c(NC(=O)c2cccc(C(F)(F)F)c2)sc2c1CCC(=O)C2`, for which the GI50 is 0.387 µM in [1]; 2.22 µM in assay [2]; 0.135 µM in assay [3]; 0.365 µM in assay [4]; 0.352 µM in assay [5]; 1.67 µM in [6]. For the same compound, the GI50 was 0.36 µM in assay [7], 0.593 µM in [8], 0.349 µM in assay [9] and 0.199 µM in [10]. For the same compound, the TGI is more than 34.3 µM in assay [1]; 8.24 µM in assay [2]; more than 100 µM in assay [3]; more than 100 µM in [4]; 2.83 µM in assay [5]; 5.71 µM in assay [6]. Also, the TGI in assay [7] is 1.88 µM; in [8] it was more than 21.7 µM; in assay [9], 1.72 µM; in assay [10], 1.59 µM.
Turning to `CCN(CC)CCOc1ccc(Nc2ncc3cc(-c4c(Cl)cccc4Cl)c(=O)n(CCOC)c3n2)cc1`, the GI50 in assay [1] is 0.498 µM; in assay [2], 0.064 µM; in [3], 0.005 µM; in assay [4] it was 0.562 µM; in assay [5], 0.533 µM; in [6], 0.0235 µM. Further, the concentration for 50% growth inhibition (GI50) in assay [7] is 0.375 µM; in assay [8], 0.796 µM; in assay [9], 0.415 µM; in [10], 0.159 µM. The TGI in [1] was found to be 4.18 µM; in assay [2] it was 7.35 µM; in [3] it was 18.2 µM; in assay [4], 4.77 µM; in assay [5], 2.7 µM; in [6] it was 0.16 µM. Besides, the total growth inhibition concentration (TGI) in [7] was determined as 6.07 µM; in assay [8] it was 7.38 µM; in assay [9], 7.2 µM; in assay [10], 1.16 µM.
On to `C[N+](C)([O-])CCCNc1c2ccccc2nc2cccc([N+](=O)[O-])c12`, for which the TGI in [1] is 0.795 µM; in assay [2], more than 29.4 µM; in assay [3] it was more than 100 µM; in assay [4], 0.707 µM; in [5], 2.91 µM; in [6] it was 0.545 µM. Also, the TGI was determined as 15 µM in assay [7], 0.901 µM in assay [8], 75.6 µM in assay [9] and 1.02 µM in assay [10].
On to `NC1C2C(CC(=O)O)OCC=C3CN4CCC1(C(=O)C(=O)O)C4CC32` (stereo not given), for which the TGI in assay [1], in assay [2], in assay [3], in assay [4], in assay [5] and in [6] was more than 100 µM throughout. Also, the TGI in assay [7], in assay [8], in assay [9] and in assay [10] was more than 100 µM throughout.
For the compound `CC1=C(C(=O)Nc2ccc3[nH]ncc3c2)C(c2ccc(F)cc2)NC(=O)N1` (stereo not given), the GI50 in assay [1] was more than 25 µM; in [2], more than 25 µM; in [3], more than 25 µM; in assay [4], more than 25 µM; in assay [5], 16.9 µM; in assay [6], more than 14.6 µM. The GI50 in [7], in assay [8], in assay [9] and in assay [10] was more than 25 µM each time. For the same compound, the TGI in assay [1], in [2], in assay [3], in [4], in assay [5] and in assay [6] was more than 25 µM in each case. Also, the TGI in assay [7], in assay [8], in assay [9] and in assay [10] was more than 25 µM each time.
Take `C=C1C(=O)O[C@H]2[C@H]1CC/C(CNS(=O)(=O)c1ccc3ccccc3c1)=C\CC[C@@]1(C)O[C@@H]21`: the GI50 is 10.9 µM in [1]; 16.3 µM in [2]; 0.691 µM in assay [3]; 8.14 µM in assay [4]; 1.76 µM in [5]; 10.2 µM in assay [6]. For the same compound, the GI50 is 7.49 µM in assay [7], 2.48 µM in assay [8], 7.11 µM in [9] and 0.879 µM in [10]. Also, the concentration for total growth inhibition (TGI) in [1] came to 25 µM; in assay [2], 30 µM; in [3] it was 4.46 µM; in assay [4] it was 24.3 µM; in assay [5], 4.02 µM; in assay [6] it was 21.8 µM. In addition, the TGI worked out at 20.9 µM in assay [7], 11.1 µM in assay [8], 31.7 µM in assay [9] and 2.12 µM in assay [10].
As for `CNc1nc(C)c(-c2nc(Nc3cccc(S(N)(=O)=O)c3)ncc2F)s1`, the GI50 in [1] is 0.0874 µM; in assay [2] it was 0.0925 µM; in assay [3] it was 0.0668 µM; in assay [4] it was 0.0776 µM; in [5] it was 0.0228 µM; in [6], less than 0.0168 µM. Moreover, the GI50 is 0.0406 µM in assay [7], 0.0747 µM in assay [8], 0.0886 µM in [9] and less than 0.0161 µM in [10]. For the same compound, the TGI was 15.2 µM in assay [1]; 12.4 µM in [2]; 24.4 µM in assay [3]; 3.89 µM in assay [4]; 0.0753 µM in assay [5]; less than 0.0308 µM in assay [6]. The TGI in assay [7] was 6.79 µM; in [8] it was 3.78 µM; in assay [9] it was 9.17 µM; in [10] it was 12.5 µM.
As to `O=C(Nc1ccc(Cl)cc1)c1cc2c(cc1O)[nH]c1ccccc12`, the GI50 in assay [1] is 2.85 µM; in [2], 2.32 µM; in assay [3], 4.28 µM; in assay [4] it was 3.11 µM; in assay [5], 2.29 µM; in [6] it was 2.56 µM. The GI50 in assay [7] is 1.67 µM; in assay [8], 2.16 µM; in assay [9] it was 2.87 µM; in assay [10] it was 2.95 µM. The TGI is 10.3 µM in [1]; 6.51 µM in assay [2]; more than 100 µM in [3]; 10.2 µM in assay [4]; 6.1 µM in [5]; 7.29 µM in [6]. The TGI in assay [7] came to 3.87 µM; in assay [8], 7.89 µM; in assay [9], 8.93 µM; in [10] it was 10.3 µM.
